Test results from patent US20120214875A1, “PHENOX[…]” (priority 2011, published 2012).
Where “and” joins values, the source holds several entries; their conditions need not be identical. Equal entries are not always repeated.

Legend:
[1] = Autosampler re-injection reproducibility of extracted QC samples; format: physicochemical; details: for Amount Found: single replicates; for % Difference: 7° C. ± 4° C.
Procedure: (§1) Phenoxybenzamine and the internal standard phenoxybenzamine-d5 were extracted from 0.2 mL of human plasma, using EDTA (potassium K2 salt) as the anticoagulant and containing 1.3% of H3PO4 as stabilizer, by solid phase extraction into 0.8 mL of 0.1% TFA in 80% methanol, followed by dilution with 0.4 mL of 0.1% TFA. An aliquot of this extract was injected into a high performance liquid chromatography system and detected using an API 3000 tandem mass spectrometer with HSID interface and quantitated using peak area ratio method. Method sensitivity and selectivity were achieved by detecting distinct precursor to product ion mass transitions for phenoxybenzamine (304.1→120.0) and the internal standard phenoxybenzamine-d5 (309.1→120.0) at defined retention times under reverse chromatographic conditions.
(§2) Blood plasma was separated from whole blood. The plasma samples should be protected from light and may be stored at −70° C. for use. The plasma samples were thawed in cold tap water and analyzed along with a set of standard samples. All samples were vortexed for about 20 seconds, centrifuged at 3000 rpm for 5 minutes at 4° C.±4° C., and placed in an ice-water bath. 200 uL of plasma was added to polypropylene tubes and kept in ice-water bath. 100 uL of internal standard working solution (40 ng/mL of phenoxybenzamine-d5) was added into all the tubes except those labeled with “BLANK.” 100 uL of 0.1 N HCl in 20% methanol was added to those labeled with BLANK and the tubes were vortexed for about 20 seconds. 400 uL of 1.7% phosphoric acid was added into all tubes. The tubes were vortexed for about 40 seconds and left in an ice-water bath. The Oasis™ HLB 1 cc (30 mg) cartridges (Waters) were washed first with 700 uL methanol and then with 700 uL water. The samples prepared above were then transferred into the cartridges which were then centrifuged at 1000 rpm for 2 minutes at 4° C.±4° C. Cartridges were then first washed with 700 uL water and then washed with 700 uL of 0.1% TFA in 40% methanol. Cartridges were then eluted twice with 400 μL of 0.1% TFA in 80% methanol, and all of the eluates were collected and diluted with 400 μL of 0.1% TFA. The extracted samples were then ready for analysis.
The mean concentration of the aged re-injected samples was compared with the mean concentration of the initial zero hour samples prepared at the same concentration as the QC samples.

[2] = Stability of phenoxybenzamine in acidified plasma; format: in vitro ADME
Procedure: (§3) The stability of phenoxybenzamine in acidified plasma samples containing 1% FA, 1% H3PO4, 2% H3PO4 or 0.1N HCl was tested.

[3] = Stability of phenoxybenzamine in whole blood; format: in vitro ADME, human; details: for WB Sample Amount Found, Mean: mean of six; for WB Sample Amount Found: single replicates
Procedure: Stability of phenoxybenzamine in human whole blood was determined by spiking phenoxybenzamine into fresh human whole blood. This was followed by the preparation of the whole blood samples into two sets: one set was immediately processed into plasma and the other set was stored at 4° C.±4° C. for up to two hours and then processed into plasma. Samples were extracted in replicates of six with control blank and analyzed.

[4] = Stability of phenoxybenzamine in various solvents; format: physicochemical
Procedure: Various solvents were examined for their abilities to stabilize phenoxybenzamine. The solvents examined were alcohol, acetonitrile (ACN), methanol (MeOH), acidified solvents (e.g., acidified MeOH and acidified ACN). Phenoxybenzamine in these solvents was not stable for 24 hr at 4° C. The stability of phenoxybenzamine was examined in acidified ACN with 0.5%, 1% and 2% formic acid (“FA”). Phenoxybenzamine was stable for ˜3 hr at RT and 4° C. The measured amount of phenoxybenzamine for neat standard in 0.5% FA in ACN was higher than those using 1% FA in ACN, and 2% FA in ACN.
The stability of phenoxybenzamine was examined in acidified MeOH (80% MeOH containing 0.1% TFA). Phenoxybenzamine was stable for at least 48 hours at 4° C., −25° C. and −70° C.
as §3

[5] = Processed sample integrity; format: physicochemical; details: for Amount Found: single replicates; for % Difference: ~112 hours vs 0.0 hours, 4° C. ± 4° C.
Procedure: as §1, §2
The mean concentration at each time-point was compared with the mean concentration of the zero hour samples.

[6] = Stability of phenoxybenzamine in neat solution; format: physicochemical
Procedure: The stability of phenoxybenzamine in neat solutions was examined. The measured amount of phenoxybenzamine in neat solution dropped ˜90% in 24 hours at ambient temperature but ˜20% at 4° C.

[7] = QC HIGH 19.232 ng/mL added, 0.0 hours
[8] = QC HIGH 19.232 ng/mL added, ~75 hours at 7° C. ± 4° C.
[9] = QC HIGH 19.232 ng/mL added, ~110 hours at 7° C. ± 4° C.
[10] = QC LOW 0.601 ng/mL added, 0.0 hours
[11] = QC LOW 0.601 ng/mL added, ~110 hours at 7° C. ± 4° C.
[12] = human whole blood, ~2 hours at 4° C.±4° C.
[13] = QC HIGH 19.232 ng/mL added, ~112 hours at 4° C. ± 4° C.
[14] = QC LOW 0.601 ng/mL added, ~112 hours at 4° C. ± 4° C.

SMILES: CC(COc1ccccc1)N(CCCl)Cc1ccccc1 (racemic) [phenoxybenzamine, (RS)—N-benzyl-N-(2-chloroethyl)-1-phenoxy-propan-2-amine]
- Amount Found, Mean [1, 7]: 18.178 ng/mL
- Amount Found [1, 7]: 18.305 ng/mL and 18.069 ng/mL and 18.161 ng/mL
- Amount Found, Mean [1, 8]: 18.411 ng/mL
- Amount Found [1, 8]: 18.066 ng/mL and 18.686 ng/mL and 18.482 ng/mL
- Amount Found, Mean [1, 9]: 18.423 ng/mL
- Amount Found [1, 9]: 18.179 ng/mL and 18.435 ng/mL and 18.656 ng/mL
- % Difference ([1]; QC HIGH, ~75 hours vs 0.0 hours): 1.3%
- % Difference ([1]; QC HIGH, ~110 hours vs 0.0 hours): 1.3%
- Amount Found, Mean [1, 10]: 0.601 ng/mL
- Amount Found [1, 10]: 0.590 ng/mL and 0.603 ng/mL and 0.610 ng/mL
- Amount Found, Mean ([1]; QC LOW 0.601 ng/mL added, ~75 hours at 7° C. ± 4° C.): 0.615 ng/mL
- Amount Found ([1]; QC LOW 0.601 ng/mL added, ~75 hours in autosampler at 7° C. ± 4° C.): 0.610 ng/mL and 0.646 ng/mL and 0.590 ng/mL
- Amount Found, Mean [1, 11]: 0.603 ng/mL
- Amount Found [1, 11]: 0.602 ng/mL and 0.612 ng/mL and 0.595 ng/mL
- % Difference ([1]; QC LOW, ~75 hours vs 0.0 hours): 2.4%
- % Difference ([1]; QC LOW, ~110 hours vs 0.0 hours): 0.3%
- time for which extracted samples can be re-injected ([1]; extracted samples stored in autosampler at 7° C.±4° C.): up to 110 hours
- stability in acidified plasma ([2]; plasma containing 0.1N HCl): stable
- stability in acidified plasma ([2]; plasma containing 1% FA): stable except for 1% FA
- stability in acidified plasma ([2]; plasma containing 1% H3PO4): stable
- stability in acidified plasma ([2]; plasma containing 2% H3PO4): stable
- WB Sample Amount Found, Mean ([3]; human whole blood, time 0.0 hours): 3.357 ng/mL
- WB Sample Amount Found ([3]; human whole blood, time 0.0 hours, processed immediately into plasma): 3.379 ng/mL and 3.325 ng/mL and 3.381 ng/mL and 3.387 ng/mL and 3.305 ng/mL and 3.365 ng/mL
- WB Sample Amount Found, Mean [3, 12]: 3.297 ng/mL
- WB Sample Amount Found [3, 12]: 3.315 ng/mL and 3.330 ng/mL and 3.365 ng/mL and 3.328 ng/mL and 3.283 ng/mL and 3.160 ng/mL
- % Difference ([3]; human whole blood, ~2 hours vs 0.0 hours, 4° C.±4° C.): −1.8%
- time stable in whole blood ([3]; stored at 4° C.±4° C.): up to 2 hours
- measured amount for neat standard in 0.5% FA in ACN compared with 1% FA and 2% FA in ACN ([4]; 0.5% FA in ACN vs 1% and 2% FA in ACN): higher
- drop, autosampler stability ([4]; 0.5% FA in ACN, ~24 hr): ~70%
- autosampler re-injection stability, time stable ([4]; 80% MeOH containing 0.1% TFA): at least 24 hours
- time stable in acidified MeOH ([4]; 80% MeOH containing 0.1% TFA, 4° C., −25° C. and −70° C.): at least 48 hours
- time stable in acidified ACN ([4]; ACN with 0.5%, 1% and 2% formic acid, RT and 4° C.): ~3 h
- stability in solvents ([4]; alcohol, acetonitrile, methanol, acidified MeOH and acidified ACN, 24 hr at 4° C.): not stable
- time for which integrity of processed samples is not affected ([5]; LOW and HIGH concentrations, 4° C.±4° C.): up to 112 hours
- Amount Found, Mean [5, 7]: 18.178 ng/mL
- Amount Found [5, 7]: 18.305 ng/mL and 18.069 ng/mL and 18.161 ng/mL
- Amount Found, Mean [5, 13]: 18.214 ng/mL
- Amount Found [5, 13]: 18.209 ng/mL and 18.214 ng/mL and 18.220 ng/mL
- % Difference ([5]; QC HIGH): 0.2%
- Amount Found, Mean [5, 10]: 0.601 ng/mL
- Amount Found [5, 10]: 0.590 ng/mL and 0.603 ng/mL and 0.610 ng/mL
- Amount Found, Mean [5, 14]: 0.583 ng/mL
- Amount Found [5, 14]: 0.574 ng/mL and 0.590 ng/mL and 0.586 ng/mL
- % Difference ([5]; QC LOW): −2.9%
- drop of measured amount in neat solution ([6]; 24 hours at 4° C.): ~20%
- drop of measured amount in neat solution ([6]; 24 hours at ambient temperature): ~90%
